Read-outs that look alike come from different tables or passages of the source.
Tests used:
[1] = target: hPIV-3 strain C243 neuraminidase (UniProt P08492, species not given/STRAIN_C243); type: biochemical
hPIV-3 strain C243 [2] = experiment: In situ ELISA virus growth inhibition in LLC-MK2 cells; type: cell-based; conditions: Human respirovirus 3, LLC-MK2
hPIV-1 strain C35 [3] = experiment: Haemagglutination inhibition (HI) assay with human red blood cells; type: biochemical; conditions: hPIV1 C35
[4] = system: hPIV-3 strain CI002 (clinical isolate); experiment: as above; type: biochemical; conditions: hPIV3 CI002
hPIV-3 strain JS [5] = experiment: as above; type: biochemical; conditions: hPIV3 JS
hPIV-3 strain JS [6] = experiment: In situ ELISA virus growth inhibition in LLC-MK2 cells; type: cell-based; conditions: Human respirovirus 3, LLC-MK2; hPIV3 JS
[7] = target: hPIV-3 strain CI002 (clinical isolate) neuraminidase (UniProt P08492, species not given/STRAIN_CI002); type: biochemical; conditions: hPIV3 CI002; read-out: NI IC50
hPIV-3 strain C243 [8] = experiment: Haemagglutination inhibition (HI) assay with human red blood cells; type: biochemical; conditions: hPIV3 C243
[9] = system: hPIV-3 strain CI002 (clinical isolate); experiment: In situ ELISA virus growth inhibition in LLC-MK2 cells; type: cell-based; conditions: Human respirovirus 3, LLC-MK2; hPIV3 CI002
hPIV-1 strain C35 [10] = experiment: In situ ELISA virus growth inhibition; type: cell-based; conditions: hPIV1 C35
[11] = hPIV-3 strain C243, Table 1, read-out: NI (IC50)
[12] = hPIV3 C243, Table 2, read-out: NI IC50

Chain of hPIV-3 strain CI002 (clinical isolate) neuraminidase (P08492 whole entry, change not shown): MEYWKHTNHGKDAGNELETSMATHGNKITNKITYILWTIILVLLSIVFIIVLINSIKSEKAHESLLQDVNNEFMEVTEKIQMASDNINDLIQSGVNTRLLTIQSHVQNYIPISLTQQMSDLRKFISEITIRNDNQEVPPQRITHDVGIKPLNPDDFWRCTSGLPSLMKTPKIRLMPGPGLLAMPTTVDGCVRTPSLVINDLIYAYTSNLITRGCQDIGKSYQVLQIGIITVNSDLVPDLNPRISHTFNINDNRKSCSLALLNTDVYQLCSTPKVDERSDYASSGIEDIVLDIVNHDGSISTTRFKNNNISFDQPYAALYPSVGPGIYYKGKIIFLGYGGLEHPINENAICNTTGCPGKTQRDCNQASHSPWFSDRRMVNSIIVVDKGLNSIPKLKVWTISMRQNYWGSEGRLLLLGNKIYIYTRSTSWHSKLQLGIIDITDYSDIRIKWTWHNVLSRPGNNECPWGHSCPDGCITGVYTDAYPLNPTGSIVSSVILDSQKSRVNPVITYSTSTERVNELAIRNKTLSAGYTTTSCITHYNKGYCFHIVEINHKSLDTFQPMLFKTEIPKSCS
Chain of hPIV-3 strain C243 neuraminidase (P08492 whole entry, change not shown): as above

| Structure (SMILES) | IC50 [1, 11] | IC50 (hPIV-1 strain C35 [3]) | IC50 [4] | IC50 (hPIV-3 strain JS [5]) | IC50 [1, 12] | other results |
| --- | --- | --- | --- | --- | --- | --- |
| CC(=O)N[C@H]1[C@H]([C@H](O)[C@H](O)CO)OC(C(=O)O)=C[C@@H]1n1cc(-c2ccccc2NC(=O)CCCCCCCCCCC(=O)Nc2ccccc2-c2cn([C@H]3C=C(C(=O)O)O[C@@H]([C@H](O)[C@H](O)CO)[C@@H]3NC(C)=O)nn2)nn1 [IE1826-01] | 8.09 µM |  |  |  |  | IC50 (hPIV-3 strain C243 [2]; hPIV-3 strain C243, Table 1): 17.9 µM |
| CC(=O)N[C@H]1[C@H]([C@H](O)[C@H](O)CO)OC(C(=O)O)=C[C@@H]1n1nnc2c3ccccc3ccc21 [IE1778-64] | 4.13 µM |  |  |  |  |  |
| CC(=O)N[C@H]1[C@H]([C@H](O)[C@H](O)CO)OC(C(=O)O)=C[C@@H]1n1cc(-c2ccccc2NC(=O)CCCCCN=[N+]=[N-])nn1 [IE1826-23] | 69.2 µM |  |  |  |  |  |
| CC(=O)N[C@H]1[C@H]([C@H](O)[C@H](O)CO)OC(C(=O)O)=C[C@@H]1n1cc2ccc3ccccc3c2n1 [IE1530-65] | 10.2 µM |  |  |  |  |  |
| CC(=O)N[C@H]1[C@H]([C@H](O)[C@H](O)CO)OC(C(=O)O)=C[C@@H]1n1cc(-c2ccccc2NC(=O)CNC(=O)c2ccc(N(C)C)cc2)nn1 |  | > 200 µM | > 200 µM | 14 µM |  | IC50 (hPIV-3 strain JS [6]): 355 µM |
| O=C(O)C1=C[C@H](n2cc3c(Br)cccc3n2)[C@@H](NC(=O)C(F)(F)F)[C@H]([C@H](O)[C@H](O)CO)O1 |  | 4.94 µM | 7.41 µM |  | 3.95 µM | IC50 [7]: 8.87 µM |
| CC(=O)N[C@H]1[C@H]([C@H](O)[C@H](O)CO)OC(C(=O)O)=C[C@@H]1n1cc(-c2ccccc2NC(=O)c2cccc(OC(F)(F)F)c2)nn1 |  |  | > 200 µM | > 250 µM | 47.4 µM | IC50 (hPIV-3 strain C243 [8]): > 200 µM; IC50 (hPIV-3 strain C243 [2]; hPIV3 C243, Table 2): 217 µM; IC50 (hPIV-3 strain JS [6]): > 500 µM |
| CC(=O)Nc1ccccc1-c1cn([C@H]2C=C(C(=O)O)O[C@@H]([C@H](O)[C@H](O)CO)[C@@H]2NC(C)=O)nn1 |  | > 200 µM | > 200 µM | 40 µM |  | IC50 (hPIV-3 strain C243 [2]; hPIV3 C243, Table 2): 126 µM; IC50 (hPIV-3 strain JS [6]): 406 µM |
| O=C(O)C1=C[C@H](n2cc3ccc4ccccc4c3n2)[C@@H](NC(=O)C(F)(F)F)[C@H]([C@H](O)[C@H](O)CO)O1 [IE1530-69] | 2.84 µM |  |  |  |  |  |
| N#Cc1ccc2cn([C@H]3C=C(C(=O)O)O[C@@H]([C@H](O)[C@H](O)CO)[C@@H]3NC(=O)C(F)(F)F)nc2c1 |  | > 200 µM | > 200 µM | > 200 µM | 49.8 µM | IC50 [7]: 208 µM |
| CC(=O)N[C@H]1[C@H]([C@H](O)[C@H](O)CO)OC(C(=O)O)=C[C@@H]1n1cc(-c2ccccc2NS(=O)(=O)c2ccc([N+](=O)[O-])cc2)nn1 |  | > 200 µM | 13.7 µM | 4.48 µM |  | IC50 (hPIV-3 strain C243 [8]): 2.56 µM; IC50 [9]: 29.1 µM |
| CC(=O)N[C@H]1[C@H]([C@H](O)[C@H](O)CO)OC(C(=O)O)=C[C@@H]1n1cc(-c2ccccc2NS(C)(=O)=O)nn1 [drawing 111] |  | > 200 µM | 60 µM | 28 µM |  |  |
| CC(=O)N[C@H]1[C@H]([C@H](O)[C@H](O)CO)OC(C(=O)O)=C[C@@H]1n1cc(-c2ccccc2NS(C)(=O)=O)nn1 [IE1778-12] | 29.1 µM |  |  |  |  |  |
| COc1c(F)c(F)cc(C(=O)Nc2ccccc2-c2cn([C@H]3C=C(C(=O)O)O[C@@H]([C@H](O)[C@H](O)CO)[C@@H]3NC(C)=O)nn2)c1F |  | > 200 µM |  | > 250 µM | 32.8 µM | IC50 (hPIV-3 strain C243 [2]; hPIV3 C243, Table 2): 177 µM; IC50 (hPIV-3 strain JS [6]): 764 µM |
| CC(=O)N[C@@H]1[C@@H]([C@@H](O)[C@@H](O)CO)OC(C(=O)O)=C[C@H]1n1cc(-c2ccccc2NC(=O)CCCCCn2cc(CCCc3cn(CCCCCC(=O)Nc4ccccc4-c4cn([C@H]5C=C(C(=O)O)O[C@@H]([C@H](O)[C@H](O)CO)[C@@H]5NC(C)=O)nn4)nn3)nn2)nn1 [IE1826-14] | 8.22 µM |  |  |  |  |  |
| CC(=O)N[C@H]1[C@H]([C@H](O)[C@H](O)CO)OC(C(=O)O)=C[C@@H]1n1cc2ccccc2n1 [IE1530-66] | 92.8 µM |  |  |  |  |  |
| O=C(O)C1=C[C@H](n2cc3ccc(F)cc3n2)[C@@H](NC(=O)C(F)(F)F)[C@H]([C@H](O)[C@H](O)CO)O1 |  | 133 µM | 22.2 µM |  | 12.9 µM | IC50 [7]: 103 µM |
| CC(=O)N[C@H]1[C@H]([C@H](O)[C@H](O)CO)OC(C(=O)O)=C[C@@H]1n1cc(-c2ccccc2NC(=O)CCNS(=O)(=O)Cc2ccccc2)nn1 |  | > 200 µM | > 200 µM | > 200 µM | 21.2 µM | IC50 [7]: 53.9 µM |
| CC(=O)N[C@H]1[C@H]([C@H](O)[C@H](O)CO)OC(C(=O)O)=C[C@@H]1n1cc(-c2ccccc2NC(=O)CCCCCn2cc(CO)nn2)nn1 [IE1826-44] | 47.2 µM |  |  |  |  |  |

| Structure (SMILES) | IC50 [1, 11] | IC50 (hPIV-1 strain C35 [3]) | IC50 [4] | IC50 (hPIV-3 strain JS [5]) | IC50 [1, 12] | other results |
| --- | --- | --- | --- | --- | --- | --- |
| CC(=O)N[C@H]1[C@H]([C@H](O)[C@H](O)CO)OC(C(=O)O)=C[C@@H]1n1cc(-c2ccccc2NC(=O)CNS(=O)(=O)c2cccc([N+](=O)[O-])c2)nn1 |  | > 200 µM | 44.5 µM | 15.4 µM |  | IC50 [9]: 99.1 µM |
| CC(C)C(=O)N[C@H]1[C@H]([C@H](O)[C@H](O)CO)OC(C(=O)O)=C[C@@H]1n1cc2cc(C(=O)O)ccc2n1 |  |  |  |  | 230 µM | IC50 [7]: 163 µM; IC50 (hPIV-3 strain C243 [8]): > 200 µM |
| CC(=O)N[C@H]1[C@H]([C@H](O)[C@H](O)CO)OC(C(=O)O)=C[C@@H]1n1cc(-c2ccccc2NC(=O)CCNS(=O)(=O)c2ccc([N+](=O)[O-])cc2)nn1 |  | > 200 µM | > 200 µM | 38.5 µM |  | IC50 [9]: 287 µM |
| N#Cc1ccc2nn([C@H]3C=C(C(=O)O)O[C@@H]([C@H](O)[C@H](O)CO)[C@@H]3NC(=O)C(F)(F)F)cc2c1 |  | 66.7 µM | > 200 µM | 133 µM | 47.9 µM | IC50 [7]: 143 µM |
| CC(=O)N[C@H]1[C@H]([C@H](O)[C@H](O)CO)OC(C(=O)O)=C[C@@H]1n1cc(-c2ccccc2NC(=O)CCCCCn2cc(-c3ccccc3)nn2)nn1 [IE1826-30] | 24.3 µM |  |  |  |  |  |
| O=C(O)C1=C[C@H](n2cc3ccccc3n2)[C@@H](NC(=O)C(F)(F)F)[C@H]([C@H](O)[C@H](O)CO)O1 [IE1530-74, Sodium 2,6-anhydro-3,4,5-trideoxy-4-(2H-indazol-2-yl)-5-(2,2,2-trifluoroacetamido)-D-glycero-D-galacto-non-2-enonate] | 9.37 µM |  |  |  |  |  |
| O=C(O)C1=C[C@H](n2nnc3c4ccccc4ccc32)[C@@H](NC(=O)C(F)(F)F)[C@H]([C@H](O)[C@H](O)CO)O1 [IE1778-74] | 0.568 µM |  |  |  |  | IC50 (hPIV-3 strain C243 [2]; hPIV-3 strain C243, Table 1): 1.87 µM |
| CC(=O)N[C@H]1[C@H]([C@H](O)[C@H](O)CO)OC(C(=O)O)=C[C@@H]1n1cc(-c2ccccc2NC(=O)CNC(=O)c2ccc(-c3ccccc3)cc2)nn1 |  | > 200 µM | 44.5 µM | 6.4 µM |  | IC50 (hPIV-3 strain C243 [2]; hPIV3 C243, Table 2): 23.7 µM; IC50 (hPIV-3 strain JS [6]): 60.7 µM |
| COc1ccc(OC)c2nn([C@H]3C=C(C(=O)O)O[C@@H]([C@H](O)[C@H](O)CO)[C@@H]3NC(=O)C(F)(F)F)cc12 |  |  |  |  | 11.2 µM | IC50 [7]: 74.2 µM; IC50 (hPIV-3 strain C243 [8]): 14.8 µM |
| CC(=O)N[C@H]1[C@H]([C@H](O)[C@H](O)CO)OC(C(=O)O)=C[C@@H]1n1cc(-c2ccccc2NC(=O)CNC(=O)c2ccccc2)nn1 |  | > 200 µM | > 200 µM | 20 µM |  | IC50 (hPIV-3 strain JS [6]): 340 µM |
| CC(=O)N[C@H]1[C@H]([C@H](O)[C@H](O)CO)OC(C(=O)O)=C[C@@H]1n1cc(-c2ccccc2NC(=O)CCNC(=O)C2CC2)nn1 |  |  | > 200 µM | > 250 µM | 30.2 µM | IC50 (hPIV-3 strain C243 [8]): > 200 µM; IC50 (hPIV-3 strain C243 [2]; hPIV3 C243, Table 2): 104 µM; IC50 (hPIV-3 strain JS [6]): 602 µM |
| CC(=O)N[C@H]1[C@H]([C@H](O)[C@H](O)CO)OC(C(=O)O)=C[C@@H]1n1cc(-c2ccccc2NC(=O)CNS(=O)(=O)c2ccc([N+](=O)[O-])cc2)nn1 |  | > 200 µM | 23.9 µM | 8 µM |  | IC50 (hPIV-3 strain C243 [2]; hPIV3 C243, Table 2): 63.9 µM; IC50 (hPIV-3 strain JS [6]): 240 µM; IC50 (hPIV-1 strain C35 [10]): > 200 µM |
| CC(=O)N[C@@H]1[C@@H]([C@@H](O)[C@@H](O)CO)OC(C(=O)O)=C[C@H]1n1cc(-c2ccccc2NC(=O)CCCCc2cn(CCCCCC(=O)Nc3ccccc3-c3cn([C@H]4C=C(C(=O)O)O[C@@H]([C@H](O)[C@H](O)CO)[C@@H]4NC(C)=O)nn3)nn2)nn1 [IE1826-28] | 14 µM |  |  |  |  |  |
| CC(=O)N[C@H]1[C@H]([C@H](O)[C@H](O)CO)OC(C(=O)O)=C[C@@H]1n1cc(-c2ccccc2NC(=O)CO)nn1 [IE1778-25] | 27.9 µM |  |  |  |  |  |
| COCc1cn(CCCCCC(=O)Nc2ccccc2-c2cn([C@H]3C=C(C(=O)O)O[C@@H]([C@H](O)[C@H](O)CO)[C@@H]3NC(C)=O)nn2)nn1 [IE1826-38] | 24.2 µM |  |  |  |  |  |
| CC(=O)N[C@H]1[C@H]([C@H](O)[C@H](O)CO)OC(C(=O)O)=C[C@@H]1n1cc(-c2ccccc2NC(=O)CCCCCn2cc(C(=O)O)nn2)nn1 [IE1826-34] | 16.7 µM |  |  |  |  |  |
| CC(C)C(=O)N[C@H]1[C@H]([C@H](O)[C@H](O)CO)OC(C(=O)O)=C[C@@H]1n1cc2ccc(C(=O)O)cc2n1 |  | > 200 µM | > 200 µM | > 200 µM | 211 µM | IC50 [7]: 378 µM |
| O=C(O)C1=C[C@H](n2cc3cc4c(cc3n2)OCO4)[C@@H](NC(=O)C(F)(F)F)[C@H]([C@H](O)[C@H](O)CO)O1 |  | 133 µM | 66.7 µM |  | 12.9 µM | IC50 [7]: 38.9 µM; IC50 (hPIV-3 strain C243 [8]): 14.8 µM |
